Data published in US6160020A, “Alkali metal and alkaline-earth metal salts of acetaminophen” (priority 1998, dated 2000).
Converted amounts (≈) assume the structure as drawn. Structures can show the parent of a compound that is named as a salt. Where two headings read alike, the source gives them in different places.

Assays:
[1] = aqueous solubility at 22° C.; type: physicochemical; conditions: for solubility equivalent of APAP free acid: expressed as APAP free acid, approximately
Procedure: Accordingly, the sodium, lithium and calcium salts have solubilities equivalent to approximately 260-280, 250-270, and 10 mg/mL, respectively, of APAP free acid.

[2] = dissolution of APAP form (powder) in 0.1N hydrochloric acid, USP Dissolution Apparatus 2; type: physicochemical; conditions: paddle 50 rpm, 37° C.
Procedure: In 0.1N hydrochloric acid using USP Dissolution Apparatus 2 (paddle speed: 50 rpm) at 37° C., the concentration of acetaminophen at 30 seconds was as follows: […]

[3] = stability of anionic form of APAP in aqueous solution; type: physicochemical; conditions: pH>11
Procedure: The lack of discussion on APAP salts in the scientific literature may be due in part to the fact that the anionic form of APAP is stable in aqueous solution (pH>11) for only a short period of time (<24 h). If the salt is not quickly isolated after formation, p-aminophenolate (PAP) can form and result in discoloration of the resulting product.

in vivo = assay: in vivo; set-up: species or system dog (male purebred beagles); conditions: dog, po
Procedure: A study was conducted in dogs to determine the bioavailability of acetaminophen sodium. The free acid form of acetaminophen was used as the control. Compressed cylindrical pellets having the following composition were prepared:
Acetaminophen Sodium--compressed neat (no excipients). Control--150 mg APAP, 30 mg microcrystalline cellulose, and 30 mg dextrates.
Eight male purebred beagles having a body weight at initial dosing of approximately 9 to 14 kg were used in the study. The dogs were fed PMI® Certified Canine Diet Meal No. 5007 and water, both ab libitum. The dogs were fasted overnight for approximately 12 hours prior to dosing and food was returned 4 hours after dosing.
The dogs were divided into two groups and each group was dosed with either acetaminophen sodium or the control (free acid APAP) pellets. A single dose equivalent to 300 mg of acetaminophen free acid was administered via an oral gavage using a stomach tube. Each dose was followed by 20 mL of water. After a period of one week, the each group was dosed again, but with the other form of acetaminophen. Twelve blood samples were collected form each dog on each dosing day (1 prior to dosing and 11 thereafter). The plasma was separated and tested for acetaminophen.

[4] = cited from earlier work

SMILES	aqueous solubility [1]	concentration of acetaminophen at 30 seconds [2]	also measured
CC(=O)Nc1ccc(O)cc1 [III, acetaminophen calcium (C16 H16 N2 O4 Ca.2H2 O)]	13 mg/mL		
CC(=O)Nc1ccc(O)cc1 [Calcium Salt, acetaminophen calcium]	13 mg/mL	0.20 Mg/mL of APAP	solubility equivalent of APAP free acid [1]: ~10 mg/mL
CC(=O)Nc1ccc(O)cc1 [I, acetaminophen sodium (C8 H8 NO2 Na.6H2 O)]	493 mg/mL		
CC(=O)Nc1ccc(O)cc1 [anionic form of APAP]			stability in aqueous solution [3]: < 24 h
CC(=O)Nc1ccc(O)cc1 [Sodium Salt, acetaminophen sodium]		0.30 Mg/mL of APAP	solubility equivalent of APAP free acid [1]: 260 to 280 mg/mL; Tmax (in vivo): 16.2 ± 6 min
CC(=O)Nc1ccc(OC(=O)CN)cc1 [APG-HBr, p-acetamidophenyl glycinate]			water solubility, fold more soluble than acetaminophen ([4]; relative to acetaminophen): five
CC(=O)Nc1ccc(O)cc1 [IV, acetaminophen lithium (C8 H8 NO2 Li.6H2 O)]	455 mg/mL (≈ 3010 mM)		aqueous solubility ([1]; listed as Example V): 472 mg/mL (≈ 3120 mM)
CC(=O)Nc1ccc(O)cc1 [II, acetaminophen sodium (C8 H8 NO2 Na.7H2 O)]	541 mg/mL		
CC(=O)Nc1ccc(O)cc1 [Free Acid, acetaminophen]		0.02 Mg/mL of APAP	
CC(=O)Nc1ccc(OC(=O)CC(N)C(=O)O)cc1 (stereo not drawn) [BAPA-HCl, β-p-acetamidophenyl aspartate]			water solubility, fold less soluble than APAP ([4]; relative to APAP): four
CC(=O)Nc1ccc(O)cc1 [Lithium Salt, acetaminophen lithium]		0.32 Mg/mL of APAP	solubility equivalent of APAP free acid [1]: 250 to 270 mg/mL
